Key:
Type in all cases: cell-based
[1] = test system: wild type BaF3; assay: Growth inhibition of wild type BaF3 cells (broad-spectrum toxicity); conditions: Mus musculus, BaF3, 48 h, MTS
Procedure, shortened: (§1)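 Cells (2×10^4/well) exposed 48 h at 37 °C to 8 compound concentrations, 3-fold down from 10 μM, in 0.1% DMSO. Growth read by MTS/PES at 490 nm after 1–4 h; inhibition normalised to DMSO and cell-free blank, IC50 from triplicates.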

[2] = test system: lung cancer cells H3122; assay: Growth inhibition of tumor cells H3122; conditions: Homo sapiens, NCI-H3122
[3] = test system: lung cancer cells A549; assay: Growth inhibition of tumor cells A549; conditions: Homo sapiens
[4] = target: T1, EML4-ALK-BaF3 (Homo sapiens, UniProt Q9UM73); assay: Growth inhibition of EML4-ALK transformed BaF3 cells (MTS); conditions: for IC50: EML4-ALK-BaF3 cells, 48 hours, MTS, Table 11
T1 construct: expressed in transfected cells; host or cells: Ba/F3 cells; the other entry of the earlier key: EML4 (Q9HC35, Echinoderm microtubule-associated protein-like 4)
Procedure, shortened: (§2)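 Ba/F3 cells (2×10^4/well) in DMEM or RPMI1640 with 10% FBS exposed to 8 compound concentrations (top 10 μM, 1/3 serial dilution, 0.1% DMSO) for 48 h at 37 °C, 5% CO2. Viability by MTS/PES, 1-4 h, OD 490 nm; triplicates. IC50 fitted from inhibition rate.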

[5] = target: T2, EML4-ALK (L1196M)-BaF3 (Homo sapiens, UniProt Q9UM73, L1196M); assay: Growth inhibition of EML4-ALK (L1196M) transformed BaF3 cells (MTS); conditions: 48 hours, Table 11, read-out: EML4-ALK (L1196M) (IC50 nM)
T2 construct: expressed in transfected cells; host or cells: Ba/F3 cells; the other entry of the earlier key: EML4 (Q9HC35, Echinoderm microtubule-associated protein-like 4)
Procedure, shortened: as §2

[6] = target: T3, NPM-ALK-BaF3 (Homo sapiens, UniProt Q9UM73); assay: Growth inhibition of NPM-ALK transformed BaF3 cells (MTS); conditions: 48 hours, Table 11
T3 construct: expressed in transfected cells; host or cells: Ba/F3 cells; the other entry of the earlier key: NPM1 (P06748, Nucleophosmin)
Procedure, shortened: as §1

[7] = test system: melanoma A375; assay: Growth inhibition of tumor cells A375; conditions: Homo sapiens, A-375
[8] = test system: liver cancer HepG2; assay: Growth inhibition of tumor cells HepG2; conditions: Homo sapiens
[9] = test system: breast cancer MCF7; assay: Growth inhibition of tumor cells MCF7; conditions: Homo sapiens
[10] = test system: DFC1076 (crizotinib resistant tumor cell lines); assay: Growth inhibition of tumor cells DFC1076; conditions: ALK kinase-positive lung cancer cell line

Row | IC50 [2] [nM] | IC50 [3] [nM] | IC50 [4] [nM] | targeting selectivity ([4]; ratio of IC50 between wild-type BaF3 and ALK transformed BaF3 cells) | IC50 [5] [nM] | IC50 [6] [nM] | IC50 [7] [nM] | IC50 [8] [nM] | IC50 [9] [nM] | Compound | IC50 ([1]; Table 11) [nM] | IC50 ([1]; Table 12) [nM] | growth inhibition [10]
1 | 185 | 2400 |  |  |  |  |  |  |  | C[C@@H](Oc1cc(-c2cnn(C3CCNCC3)c2)cnc1N)c1c(Cl)ccc(F)c1Cl [Crizotinib, crizotinib, reference compound] | 1080 | 1080 | 
2 | 61.1 | 2720 | 14.9 | good targeting selectivity | 168 | 303 | 3760 | 3440 | 2840 | COc1cc(N2CCC(N3CCN(C)CC3)CC2)ccc1Nc1nc(Nc2ccccc2S(=O)(=O)C(C)C)c2[nH]ccc2n1 [ID-3] | 1010 |  | good growth inhibition
3 |  |  | 6900 |  | 7310 | > 10000 |  |  |  | COC(=O)c1ccccc1Oc1nc(Nc2ccc(N3CCN(C)CC3)cc2OC)nc2cc[nH]c12 [IV-1] | > 10000 |  | 
4 |  |  | ~8980 |  | 3960 | ~9140 |  |  |  | COC(=O)c1ccccc1Oc1nc(Nc2ccc(N3CCC(N4CCN(C)CC4)CC3)cc2OC)nc2cc[nH]c12 [IV-2] | ~8450 |  | 
5 |  |  | 4550 |  | 4340 | 8150 |  |  |  | COC(=O)c1ccccc1Oc1nc(Nc2ccc(N3CCC(O)CC3)cc2)nc2cc[nH]c12 [IV-3] | 8920 |  | 
6 |  |  | > 10000 |  | > 10000 | > 10000 |  |  |  | COC(=O)c1ccccc1Oc1nc(Nc2ccc(S(N)(=O)=O)cc2)nc2cc[nH]c12 [IV-4] | > 10000 |  | 

Reference: patent US10508118B2, “Pyrimidopyrrole compounds, method for preparing the same, pharmaceutical compositions comprising the same and uses thereof” (Xiamen University, priority 2015, dated 2019)
